# Measurements taken from patent US12351597B2, “Substituted biphenyl or phenylheteroaryl-mannosides as antagonists of FimH” (GLAXOSMITHKLINE INTELLECTUAL PROPERTY DEVELOPMENT LIMITED, priority 2019, dated 2025).
# How the values were obtained:
# FimH = target: T1, FimH (Escherichia coli, UniProt Q1R2J4); test: Hemagglutination inhibition assay (HAI); assay type: cell-based; conditions: HAI titer / EC>90: concentration reducing bacterial agglutination of guinea pig red blood cells by >90%; UTI89 bacteria
# T1 construct: endogenous in cells; host or cells: E. coli UTI89 whole bacteria (piliated), with guinea pig red blood cells
# Source text: “HAI titer or EC>90” is that concentration of the FimH inhibitor/antagonist which reduces the bacterial agglutination of guinea pig red blood cells by greater than 90%.
# The activities of the Examples 1-40 compounds above as FimH antagonists/inhibitors were obtained by the following assay(s), and values are provided in Table 1. The values not provided mean that the activities have not yet been tested.
# Hemagglutination Inhibition Assay (HAI)
# The hemagglutination inhibition (HAI) assay was performed with UTI89 bacteria and guinea pig red blood cells, as previously described (S. J. Hultgren, W. R. Schwan, A. J. Schaeffer, J. L. Duncan Infect. Immun. 1986, 54, 613-620 and Jarvis, C.; Han, Z.; Kalas, V.; Klein, R.; Pinkner, J. S.; Ford, B.; Binkley, J.; Cusumano, C. K.; Cusumano, Z.; Mydock-McGrane, L.; Hultgren, S. J.; Janetka, J. W., ChemMedChem 2016, 11, 367-373). Values not listed were not tested.
# [1] = Rat pharmacokinetics (IV infusion 1 mg/kg, then PO 5 mg/kg; blood and urine); assay type: in vivo, Male Wistar Han rats; conditions: for PK DNAUC h * uM (DNAUC oral, dose normalized): PO 5 mg/kg, blood, AUC divided by dose in mg/kg; for bioavailability: male, Wistar Han, whole blood, oral bioavailability from dose-normalized AUC, PO 5 mg/kg vs IV infusion 1 mg/kg
# Source text: General Assays for Obtaining AUC Oral h*μm, % F, and Ue % PO Values
# Male Wistar Han rats were purchased from Vital River Laboratory Animal Technology Co. Ltd (Beijing, China). The animals were approx. 6-8 weeks old with body weights of 200-300 g on the dosing date. The animals were housed in a 12-hour light/12-hour dark cycle environment and had free access to food and water. All animals were fed prior to dosing. Studies were approved by the Pharmaron Institutional Animal Care and Use Committee (IACUC).
# Test article was administered as an intravenous infusion for 1 hour (1 mg/kg) at 5 mL/kg/h. After 48 h, animals received a single oral dose (5 mg/kg, free form) at a dose volume of 10 mL/kg, respectively. Blood samples were collected at various time points after IV infusion and PO administrations. Urine samples were collected at various time points after IV infusion and PO administrations (for some compounds).
# Test article was dissolved in DMSO with vortexing and sonification to obtain a stock solution. An aliquot of the stock solution was mixed with 10% HP-β-CD in saline with vortexing to obtain a solution with concentration at 0.2 mg/mL of test article.
# Test article was added into 1% Methyl Cellulose with vortexing and sonication to obtain a homogeneous suspension with concentration at 0.5 mg/mL of test article.
# For IV infusion (1 mg/kg) administration, blood samples were collected from each animal at 0, 0.25, 0.5, 0.75, 1, 1.08, 1.25, 1.5, 1.75, 2, 3, 5, 8, 12, 24 hour post-dose.
# For PO (5 mg/kg) administration, blood samples were collected from each animal at 0, 0.25, 0.5, 1, 1.5, 2, 3, 4, 6, 8, 12, 24 hour post-dose.
# Blood samples (50 μL) were collected from each animal via jugular vein. These blood samples were placed into tubes containing K2EDTA. Whole blood was mixed with same volume of water and inverted several times. The blood samples were stored at −75±15° C. until analysis.
# For IV infusion (1 mg/kg) administration, urine samples were collected from each animal at 0-4, 4-8, 8-12, 12-24 hour post-dose.
# For PO (5 mg/kg) administration, urine samples were collected (for some compounds) from each animal at 0-4, 4-8, 8-12, 12-24 hour post-dose.
# 55 μL of standards, 55 μL of QC samples or 55 μL of unknown samples (50 μL of blood or urine with 5 μL 50% acetonitrile) were mixed to 200 μL of acetonitrile containing IS (dexamethasone) to precipitate proteins. Then the samples were vortexed for 30 sec. After centrifugation at 4° C., 4700 rpm for 30 min, and 5 μL of the supernatant was injected into the LC-MS/MS system for quantitative analysis.
# Test article blood and urine concentrations for each animal following IV infusion at 1 mg/kg and PO at 5 mg/kg were used to calculate pharmacokinetic parameters by employing a non-compartmental analysis (Phoenix™ WinNonlin® 7.0). The linear trapezoidal algorithm was used for AUC calculation. • AUC oral h*uM: Area under the curve (AUC) of drug concentration in blood vs. time (units: h*μM) following oral administration • DNAUC Dose normalized area under the curve is calculate by divided the area under the curve divided by the dose in the mg/kg • % F: Oral bioavailability (%) derived from the ratio of dose-normalized AUC following PO and IV administration • Ue % PO: Percentage of oral dose eliminated unchanged in urine or an estimate of that parameter generated from using the percentage of the iv dose eliminated in the urine times the oral bioavailability Production Methods: […]
Structure (SMILES),HAI nM (FimH),also measured
Cc1cc(-c2ncc(C(F)(F)F)cn2)ccc1O[C@H]1O[C@H](CO)[C@@H](O)[C@H](O)[C@@H]1O [Example 15],“+++” (50-200),–
OC[C@H]1O[C@H](Oc2ccc(-c3cc(C(F)(F)F)c(F)cn3)cc2C(F)(F)F)[C@@H](O)[C@@H](O)[C@@H]1O [Example 20],“+++” (50-200),–
"Cc1cc(-c2cnc(C(F)(F)F)cn2)ccc1O[C@H]1O[C@H](CO)[C@@H](O)[C@H](O)[C@@H]1O [Example 1, (2R,3S,4S,5S,6R)-2-(Hydroxymethyl)-6-(2-methyl-4-(5-(trifluoromethyl)pyrazin-2-yl)phenoxy)tetrahydro-2H-pyran-3,4,5-triol]",“++++” (<50),"PK DNAUC h * uM (DNAUC oral, dose normalized) [1]: “+++” (>0.2 h · μM); bioavailability [1]: > 30%; Ue % (Ue % po) ([1]; percentage of oral dose eliminated unchanged in urine, or estimate from IV urinary % times oral bioavailability): “+++” (>5%)"
"OC[C@H]1O[C@H](Oc2ccc(-c3cnc(C(F)(F)F)cn3)cc2C(F)(F)F)[C@@H](O)[C@@H](O)[C@@H]1O [Example 3, (2R,3S,4S,5S,6R)-2-(Hydroxymethyl)-6-(2-(trifluoromethyl)-4-(5-(trifluoromethyl)pyrazin-2-yl)phenoxy)tetrahydro-2H-pyran-3,4,5-triol]",“+++” (50-200),"PK DNAUC h * uM (DNAUC oral, dose normalized) [1]: “++” (0.1 ≤ × ≤ 0.2h · μM); bioavailability [1]: 10 to 30%"
"Cc1cc(-c2cc(C(F)(F)F)ccn2)ccc1O[C@H]1O[C@H](CO)[C@@H](O)[C@H](O)[C@@H]1O [Example 5, (2R,3S,4S,5S,6R)-2-(hydroxymethyl)-6-(2-methyl-4-(4-(trifluoromethyl)pyridin-2-yl)phenoxy)tetrahydro-2H-pyran-3,4,5-triol]",“+++” (50-200),"PK DNAUC h * uM (DNAUC oral, dose normalized) [1]: “+++” (>0.2 h · μM); bioavailability [1]: > 30%"
Cc1cc(-c2cncc(C(F)(F)F)n2)ccc1O[C@H]1O[C@H](CO)[C@@H](O)[C@H](O)[C@@H]1O [Example 34],“+++” (50-200),–
OC[C@H]1O[C@H](Oc2ccc(-c3cnc(C(F)(F)F)cn3)cc2Cl)[C@@H](O)[C@@H](O)[C@@H]1O [Example 33],“+++” (50-200),–
Cc1cc(-c2cnc(C(F)(F)F)c(F)c2)ccc1O[C@H]1O[C@H](CO)[C@@H](O)[C@H](O)[C@@H]1O [Example 21],“+++” (50-200),–
N#Cc1cc(F)cc(-c2ccc(O[C@H]3O[C@H](CO)[C@@H](O)[C@H](O)[C@@H]3O)c(Cl)c2)c1 [Example 11],“+++” (50-200),–
OC[C@H]1O[C@H](Oc2ccc(-c3ncc(C(F)(F)F)cn3)cc2C(F)(F)F)[C@@H](O)[C@@H](O)[C@@H]1O [Example 22],“+++” (50-200),–
Cc1cc(-c2ccnc(C(F)(F)F)c2)ccc1O[C@H]1O[C@H](CO)[C@@H](O)[C@H](O)[C@@H]1O [Example 24],“+++” (50-200),–
Cc1cc(-c2cnc(C(F)(F)F)nc2)ccc1O[C@H]1O[C@H](CO)[C@@H](O)[C@H](O)[C@@H]1O [Example 16],“++++” (<50),"PK DNAUC h * uM (DNAUC oral, dose normalized) [1]: “++” (0.1 ≤ × ≤ 0.2h · μM)"
OC[C@H]1O[C@H](Oc2ccc(-c3ccc(C(F)(F)F)cn3)cc2C(F)(F)F)[C@@H](O)[C@@H](O)[C@@H]1O [Example 32],“+++” (50-200),–
Cc1cc(-c2cnc(N3CCCC3)cn2)ccc1O[C@H]1O[C@H](CO)[C@@H](O)[C@H](O)[C@@H]1O [Example 7],“++++” (<50),"PK DNAUC h * uM (DNAUC oral, dose normalized) [1]: “+” (<01 h · μM)"
N#Cc1cncc(-c2cc(F)c(O[C@H]3O[C@H](CO)[C@@H](O)[C@H](O)[C@@H]3O)c(C(F)(F)F)c2)c1 [Example 38],“++++” (<50),"PK DNAUC h * uM (DNAUC oral, dose normalized) [1]: “+” (<01 h · μM)"
Cc1cc(-c2nccnc2C(F)(F)F)ccc1O[C@H]1O[C@H](CO)[C@@H](O)[C@H](O)[C@@H]1O [Example 29],“+++” (50-200),–

Structure (SMILES),HAI nM (FimH),also measured
OC[C@H]1O[C@H](Oc2ccc(-c3cccc(C(F)(F)F)n3)cc2C(F)(F)F)[C@@H](O)[C@@H](O)[C@@H]1O [Example 39],“+++” (50-200),–
N#Cc1cc(F)cc(-c2cc(F)c(O[C@H]3O[C@H](CO)[C@@H](O)[C@H](O)[C@@H]3O)c(C(F)(F)F)c2)c1 [Example 6],“++++” (<50),"PK DNAUC h * uM (DNAUC oral, dose normalized) [1]: “+” (<01 h · μM)"
Cc1cc(-c2cnccn2)ccc1O[C@H]1O[C@H](CO)[C@@H](O)[C@H](O)[C@@H]1O [Example 23],“+++” (50-200),–
Cc1cc(-c2cccc(C(F)(F)F)n2)ccc1O[C@H]1O[C@H](CO)[C@@H](O)[C@H](O)[C@@H]1O [Example 40],“+++” (50-200),–
OC[C@H]1O[C@H](Oc2c(F)cc(-c3nccc(C(F)(F)F)n3)cc2C(F)(F)F)[C@@H](O)[C@@H](O)[C@@H]1O [Example 36],“++++” (<50),–
OC[C@H]1O[C@H](Oc2ccc(-c3cc(C(F)(F)F)ccn3)cc2C(F)(F)F)[C@@H](O)[C@@H](O)[C@@H]1O [Example 18],“+++” (50-200),–
Cc1cc(-c2ccc(N3CCCC3)nc2)ccc1O[C@H]1O[C@H](CO)[C@@H](O)[C@H](O)[C@@H]1O [Example 9],“++++” (<50),–
Cc1cc(-c2cnc(F)c(C(F)(F)F)c2)ccc1O[C@H]1O[C@H](CO)[C@@H](O)[C@H](O)[C@@H]1O [Example 31],“+++” (50-200),–
Cc1cc(-c2ccnc(N(C)C)c2)ccc1O[C@H]1O[C@H](CO)[C@@H](O)[C@H](O)[C@@H]1O [Example 10],“++++” (<50),–
OC[C@H]1O[C@H](Oc2c(F)cc(-c3ccc(C(F)(F)F)nc3)cc2C(F)(F)F)[C@@H](O)[C@@H](O)[C@@H]1O [Example 35],–,"PK DNAUC h * uM (DNAUC oral, dose normalized) [1]: “+” (<01 h · μM)"
Cc1cc(-c2ccc(C(F)(F)F)cn2)ccc1O[C@H]1O[C@H](CO)[C@@H](O)[C@H](O)[C@@H]1O [Example 27],“+++” (50-200),–
COc1ccc(-c2ccc(O[C@H]3O[C@H](CO)[C@@H](O)[C@H](O)[C@@H]3O)c(C)c2)cn1 [Example 8],“+++” (50-200),–
"OC[C@H]1O[C@H](Oc2c(F)cc(-c3cnc(C(F)(F)F)cn3)cc2C(F)(F)F)[C@@H](O)[C@@H](O)[C@@H]1O [Example 2, (2R,3S,4S,5S,6R)-2-(2-Fluoro-6-(trifluoromethyl)-4-(5-(trifluoromethyl)pyrazin-2-yl)phenoxy)-6-(hydroxymethyl)tetrahydro-2H-pyran-3,4,5-triol]",“++++” (<50),–
OC[C@H]1O[C@H](Oc2c(F)cc(-c3cc(C(F)(F)F)ccn3)cc2C(F)(F)F)[C@@H](O)[C@@H](O)[C@@H]1O [Example 19],“++++” (<50),–
OC[C@H]1O[C@H](Oc2ccc(-c3nccc(C(F)(F)F)n3)cc2C(F)(F)F)[C@@H](O)[C@@H](O)[C@@H]1O [Example 13],“+++” (50-200),–
Cc1cc(-c2ccc(C(F)(F)F)nc2)ccc1O[C@H]1O[C@H](CO)[C@@H](O)[C@H](O)[C@@H]1O [Example 26],“+++” (50-200),–
